Experimental data taken from patent US9422290B2, “Triazolopyridazine” (Boehringer Ingelheim International GmbH, priority 2012, dated 2016).

target: BRD4-BD1 (Homo sapiens (Human), UniProt O60885); assay: BRD4-H4 tetraacetylated peptide inhibition AlphaScreen; format: binding; details: 15 nM GST-BRD4-BD1 (aa 44-168), 15 nM biotinylated Acetyl-Histone H4 (Lys5, 8, 12, 16) peptide
Experimental: Compounds are diluted in serial dilution 1:5 in assay buffer from 10 mM stock in DMSO (100 μM start concentration) in white OptiPlate-384 (PerkinElmer). […] Subsequently, 6 μl of premixed AlphaLISA Glutathione Acceptor Beads and AlphaScreen Streptavidin Donor Beads from PerkinElmer (in assay buffer at a concentration of 10 μg/ml each) are added and the samples are incubated for 30 min at RT in the dark (shaking 300 rpm). Afterwards, the signal is measured in a PerkinElmer Envision HTS Multilabel Reader using the AlphaScreen protocol from PerkinElmer. […] Negative control values are entered as low basis value when using the software GraphPad Prism for calculations. Furthermore, a positive control (probe molecule JQ1+ with protein/peptide mix) is pipetted. Determination of IC50 values are carried out using GraphPad Prism 3.03 software (or updates thereof).

IC50 [nM]	SMILES
3	Cc1nnc2c(NC3CCN(C)CC3)cc(N(C)Cc3ccccc3)nn12 [Example I-1, N6-Benzyl-3,N6-dimethyl-N8-(1-methyl-piperidin-4-yl)-[1,2,4]triazolo[4,3-b]pyridazine-6,8-diamine]
83	CNc1cc(N(C)Cc2ccccc2)nn2c(C)nnc12 [Example I-5]
10	Cc1nnc2c(NC3CCN(C)CC3)cc(-c3cnn(C)c3Cc3ccccc3)nn12 [II-1, [6-(5-Benzyl-1-methyl-1H-pyrazol-4-yl)-3-methyl-[1,2,4]triazolo[4,3-b]pyridazin-8-yl]-(1-methyl-piperidin-4-yl)-amine]
117	Cc1nnc2c(NC3CCN(C)CC3)cc(-c3ccnn3Cc3ccccc3)nn12 [II-2]
3	Cc1nnc2c(NC3CCN(C)CC3)cc(-c3[nH]c4ccccc4c3Cc3ccccc3)nn12 [II-3]
37	Cc1nnc2c(NC3CCN(C)CC3)cc(-c3c(Cc4ccccc4)c4ccccc4n3C)nn12 [II-4]
8	Cc1nnc2c(NC3CCN(C)CC3)cc(-c3cnn(C)c3Oc3ccccc3)nn12 [II-7]
4	COCCN1CCC(Nc2cc(-c3cn(C)nc3Cc3ccccc3)nn3c(C)nnc23)CC1 [II-8]
3	Cc1nnc2c(NC3CCN(C)CC3)cc(-c3cn(C)nc3Cc3ccccc3)nn12 [II-9]
38	CNc1cc(-c2cn(C)nc2Cc2ccccc2)nn2c(C)nnc12 [II-10]
64	Cc1cc(-c2cn(C)nc2Cc2ccccc2)nn2c(C)nnc12 [II-11]
51	Cc1nnc2c(Cl)cc(-c3cn(C)nc3Cc3ccccc3)nn12 [II-12, 3-benzyl-4-{8-chloro-3-methyl-[1,2,4]triazolo[4,3-b]pyridazin-6-yl}-1-methyl-1H-pyrazole]
2000	CSc1cc(-c2cn(C)nc2Cc2ccccc2)nn2c(C)nnc12 [II-13]
26	CNc1cc(-c2cnn(C)c2Oc2ccccc2)nn2c(C)nnc12 [II-14]
29	CNc1cc(-c2cn(C)nc2Oc2ccccc2)nn2c(C)nnc12 [II-15]
711	Cc1nnc2c(NC(C)C)cc(-c3cn(C(C)C)nc3Cc3ccccc3)nn12 [II-16]
140	Cc1nnc2c(NC(C)C)cc(-c3cnn(C)c3Oc3ccccc3)nn12 [II-17]
31	Cc1nnc2c(NC(C)C)cc(-c3cn(C)nc3Oc3ccccc3)nn12 [II-18]
105	Cc1nnc2c(NC(C)C)cc(-c3cn(C)nc3Cc3ccccc3)nn12 [II-19]
43	Cc1nnc2c(NC(C)C)cc(-c3cn(C)nc3Oc3ccccn3)nn12 [II-20]
72	CNc1cc(-c2cn(C)nc2Oc2ccccn2)nn2c(C)nnc12 [II-21]

The next lines start with the compound.

SMILES	IC50 [nM]
Cc1nnc2c(NC3CCOCC3)cc(N(C)Cc3ccccc3)nn12 [Example I-2]	83
Cc1nnc2c(N[C@H]3CCOC3)cc(N(C)Cc3ccccc3)nn12 [Example I-3]	67
Cc1nnc2c(N[C@@H]3CCOC3)cc(N(C)Cc3ccccc3)nn12 [Example I-4]	25
CNc1cc(N(C)Cc2ccc(F)cc2)nn2c(C)nnc12 [Example I-6]	74
Cc1nnc2c(NC3CCN(C)CC3)cc(-c3cc4ccccc4n3Cc3ccccc3)nn12 [II-5, [6-(1-Benzyl-1H-indol-2-yl)-3-methyl-[1,2,4]triazolo[4,3-b]pyridazin-8-yl]-(1-methyl-piperidin-4-yl)-amine]	105
COCCN1CCC(Nc2cc(-c3cnn(C)c3Oc3ccccc3)nn3c(C)nnc23)CC1 [II-6]	8
CC(=O)N1CCC(Nc2cc(N(C)Cc3ccccc3)nn3c(C)nnc23)CC1 [III-1, 1-{4-[6-(Benzyl-methyl-amino)-3-methyl-[1,2,4]triazolo[4,3-b]pyridazin-8-ylamino]-piperidin-1-yl}-ethanone]	61
CCN1CCC(Nc2cc(N(C)Cc3ccccc3)nn3c(C)nnc23)CC1 [III-2, N6-Benzyl-N8-(1-ethyl-piperidin-4-yl)-3,N6-dimethyl-[1,2,4]triazolo[4,3-b]pyridazine-6,8-diamine]	3
COCCN1CCC(Nc2cc(N(C)Cc3ccccc3)nn3c(C)nnc23)CC1 [III-3, N6-Benzyl-N8-[1-(2-methoxy-ethyl)-piperidin-4-yl]-3,N6-dimethyl-[1,2,4]triazolo[4,3-b]pyridazine-6,8-diamine]	3
Cc1nnc2c(NC3CCN(C=O)CC3)cc(N(C)Cc3ccccc3)nn12 [III-4]	40
Cc1nnc2c(NC3CCN(S(=O)(=O)CCCN(C)C)CC3)cc(N(C)Cc3ccccc3)nn12 [III-5]	37
Cc1nnc2c(NC3CCN(S(=O)(=O)C4CCNC4)CC3)cc(N(C)Cc3ccccc3)nn12 (centres unmarked) [III-6]	33
Cc1nnc2c(NC3CCN(S(=O)(=O)C4CCNCC4)CC3)cc(N(C)Cc3ccccc3)nn12 [III-7]	57
Cc1nnc2c(NC3CCN(S(=O)(=O)CCN)CC3)cc(N(C)Cc3ccccc3)nn12 [III-8]	32
Cc1nnc2c(NC3CCN(S(=O)(=O)C4CCN(C)CC4)CC3)cc(N(C)Cc3ccccc3)nn12 [III-9]	40
Cc1nnc2c(NC3CCN(S(=O)(=O)C4CCN(C)C4)CC3)cc(N(C)Cc3ccccc3)nn12 (centres unmarked) [III-10]	44
Cc1nnc2c(NC3CCN(S(=O)(=O)CCN(C)C)CC3)cc(N(C)Cc3ccccc3)nn12 [III-11]	39
